# Experimental data reported in patent publication US9150577B2, “Heterocyclic compounds containing an indole core” (Boehringer Ingelheim International GmbH, priority 2009, dated 2015).
# Target: Human RSK2 (Homo sapiens (Human), UniProt P51812)
# Assay: Human RSK2 assay (Kinase Glo Plus, residual ATP);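 also: recombinant human RSK2 phosphorylating a substrate peptide, 90 min at 28 °C, leftover ATP read by luminescence, RLU scaled between no-kinase background and uninhibited kinase controls, 4-parameter fit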
# Assay type: biochemical
# Sequence of Human RSK2 (P51812 whole entry): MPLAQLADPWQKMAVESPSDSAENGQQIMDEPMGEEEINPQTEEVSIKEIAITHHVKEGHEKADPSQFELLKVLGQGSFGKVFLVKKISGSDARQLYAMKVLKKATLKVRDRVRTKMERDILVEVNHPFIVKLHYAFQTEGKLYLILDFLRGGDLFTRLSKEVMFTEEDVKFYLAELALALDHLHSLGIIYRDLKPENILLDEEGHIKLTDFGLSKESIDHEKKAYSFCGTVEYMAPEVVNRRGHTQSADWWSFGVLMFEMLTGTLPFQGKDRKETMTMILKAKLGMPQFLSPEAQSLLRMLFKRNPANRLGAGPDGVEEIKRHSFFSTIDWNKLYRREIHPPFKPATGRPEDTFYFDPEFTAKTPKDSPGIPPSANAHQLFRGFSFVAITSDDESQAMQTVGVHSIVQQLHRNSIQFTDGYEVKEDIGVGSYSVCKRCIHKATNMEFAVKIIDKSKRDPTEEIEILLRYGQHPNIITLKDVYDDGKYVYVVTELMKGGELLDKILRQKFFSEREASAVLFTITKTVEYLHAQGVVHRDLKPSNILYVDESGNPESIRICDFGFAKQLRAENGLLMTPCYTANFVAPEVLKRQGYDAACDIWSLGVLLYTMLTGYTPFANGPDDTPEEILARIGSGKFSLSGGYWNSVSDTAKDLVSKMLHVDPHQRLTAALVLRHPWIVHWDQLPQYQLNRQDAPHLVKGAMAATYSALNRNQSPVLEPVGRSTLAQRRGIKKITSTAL
row,SMILES,IC50
1,"CC1(c2cc(NC(=O)c3ccc4cc5n(c4c3)CCCNC5=O)on2)CC1 [Example 197, N-[3-(1-methylcyclopropyl)-1,2-oxazol-5-yl]-1-oxo-2,3,4,5-tetrahydro-1H-[1,4]diazepino[1,2-a]indole-8-carboxamide]",27 nM
2,"Cn1ccnc1NC(=O)c1ccc2cc3n(c2c1)CCCNC3=O [Example 109, N-(1-methyl-1H-imidazol-2-yl)-1-oxo-2,3,4,5-tetrahydro-1H-[1,4]diazepino[1,2-a]indole-8-carboxamide]",2200 nM
3,"Cn1ncc2cc(NC(=O)c3ccc4cc5n(c4c3)CCCNC5=O)cnc21 [Example 20, N-(1-methyl-1H-pyrazolo[3,4-b]pyridin-5-yl)-1-oxo-2,3,4,5-tetrahydro-1H-[1,4]diazepino[1,2-a]indole-8-carboxamide]",87 nM
4,"COc1ccc(NC(=O)c2ccc3cc4n(c3c2)CCCNC4=O)cc1 [Example 149, N-(4-methoxyphenyl)-1-oxo-2,3,4,5-tetrahydro-1H-[1,4]diazepino[1,2-a]indole-8-carboxamide]",110 nM
5,"O=C(Nc1cccc(N2CCOCC2)c1)c1ccc2cc3n(c2c1)CCCNC3=O [Example 7, N-[3-(morpholin-4-yl)phenyl]-1-oxo-2,3,4,5-tetrahydro-1H-[1,4]diazepino[1,2-a]indole-8-carboxamide]",60 nM
6,"O=C(Nc1cnn(C2CCOCC2)c1)c1ccc2cc3n(c2c1)CCCNC3=O [Example 27, 1-oxo-N-[1-(tetrahydro-2H-pyran-4-yl)-1H-pyrazol-4-yl]-2,3,4,5-tetrahydro-1H-[1,4]diazepino[1,2-a]indole-8-carboxamide]",46 nM
7,"O=C(Nc1ccc2scnc2c1)c1ccc2cc3n(c2c1)CCCNC3=O [Example 203, N-(1,3-benzothiazol-5-yl)-1-oxo-2,3,4,5-tetrahydro-1H-[1,4]diazepino[1,2-a]indole-8-carboxamide]",180 nM
8,"CN(C)CCCn1cc(NC(=O)c2ccc3cc4n(c3c2)CCCNC4=O)cn1 [Example 36, N-{1-[3-(dimethylamino)propyl]-1H-pyrazol-4-yl}-1-oxo-2,3,4,5-tetrahydro-1H-[1,4]diazepino[1,2-a]indole-8-carboxamide]",84 nM
9,"O=C(Nc1ccn(-c2ccccc2)n1)c1ccc2cc3n(c2c1)CCCNC3=O [Example 14, 1-oxo-N-(1-phenyl-1H-pyrazol-3-yl)-2,3,4,5-tetrahydro-1H-[1,4]diazepino[1,2-a]indole-8-carboxamide]",108 nM
10,"CC1CNC(=O)c2cc3ccc(C(=O)Nc4cn[nH]c4)cc3n2C1 (stereo not drawn) [Example 17, 4-methyl-1-oxo-N-(1H-pyrazol-4-yl)-2,3,4,5-tetrahydro-1H-[1,4]diazepino[1,2-a]indole-8-carboxamide]",145 nM
11,"CN(C)CCn1cc(NC(=O)c2ccc3cc4n(c3c2)CCCNC4=O)cn1 [Example 119, N-{1-[2-(dimethylamino)ethyl]-1H-pyrazol-4-yl}-1-oxo-2,3,4,5-tetrahydro-1H-[1,4]diazepino[1,2-a]indole-8-carboxamide]",120 nM
12,"O=C(Nc1cc(-c2ccccc2)on1)c1ccc2cc3n(c2c1)CCCNC3=O [Example 211, 1-oxo-N-(5-phenyl-1,2-oxazol-3-yl)-2,3,4,5-tetrahydro-1H-[1,4]diazepino[1,2-a]indole-8-carboxamide]",290 nM
13,"C[C@@H]1CNC(=O)c2cc3ccc(C(=O)Nc4cnn(Cc5ccccc5)c4)cc3n2[C@H]1C [Example 137, (4R,5S)-N-(1-benzyl-1H-pyrazol-4-yl)-trans-4,5-dimethyl-1-oxo-2,3,4,5-tetrahydro-1H-[1,4]diazepino[1,2-a]indole-8-carboxamide]",43.5 nM
14,"Cn1cc(NC(=O)c2ccc3cc4n(c3c2)CCCNC4=O)ccc1=O [Example 116, N-(1-methyl-6-oxo-1,6-dihydropyridin-3-yl)-1-oxo-2,3,4,5-tetrahydro-1H-[1,4]diazepino[1,2-a]indole-8-carboxamide]",110 nM
15,"Cc1cccc(-c2cc(NC(=O)c3ccc4cc5n(c4c3)CCCNC5=O)on2)c1 [Example 200, N-[3-(3-methylphenyl)-1,2-oxazol-5-yl]-1-oxo-2,3,4,5-tetrahydro-1H-[1,4]diazepino[1,2-a]indole-8-carboxamide]",160 nM
16,"Cc1cc(NC(=O)c2ccc3cc4n(c3c2)[C@@H](C)[C@@H](C)NC4=O)no1 [Example 172, (3R,4S)-3,4-dimethyl-N-(5-methyl-1,2-oxazol-3-yl)-1-oxo-1,2,3,4-tetrahydropyrazino[1,2-a]indole-7-carboxamide]",1100 nM
17,"N#Cc1ccccc1NC(=O)c1ccc2cc3n(c2c1)CCCNC3=O [Example 217, N-(2-cyanophenyl)-1-oxo-2,3,4,5-tetrahydro-1H-[1,4]diazepino[1,2-a]indole-8-carboxamide]",7000 nM
18,"CC(C)(C)c1cc(NC(=O)c2ccc3cc4n(c3c2)CCCNC4=O)on1 [Example 195, N-(3-tert-butyl-1,2-oxazol-5-yl)-1-oxo-2,3,4,5-tetrahydro-1H-[1,4]diazepino[1,2-a]indole-8-carboxamide]",44 nM

# The remaining lines, values ahead:
row,IC50,SMILES
1,4 nM,"Cc1cc(NC(=O)c2ccc3cc4n(c3c2)[C@H](C)[C@H](C)NC4=O)no1 [Example 171, (3S,4R)-3,4-dimethyl-N-(5-methyl-1,2-oxazol-3-yl)-1-oxo-1,2,3,4-tetrahydropyrazino[1,2-a]indole-7-carboxamide]"
2,0.64 nM,"CCn1c(NC(=O)c2ccc3cc4n(c3c2)[C@@H](C)[C@@H](C)NC4=O)nc2ccccc21 (relative stereo) [Example 79, N-(1-ethyl-1H-benzimidazol-2-yl)-cis-3,4-dimethyl-1-oxo-1,2,3,4-tetrahydropyrazino[1,2-a]indole-7-carboxamide]"
3,0.63 nM,"CCn1c(NC(=O)c2ccc3cc4n(c3c2)C(C)CNC4=O)nc2ccccc21 (stereo not drawn) [Example 83, N-(1-ethyl-1H-benzimidazol-2-yl)-4-methyl-1-oxo-1,2,3,4-tetrahydropyrazino[1,2-a]indole-7-carboxamide]"
4,13 nM,"CC1CNC(=O)c2cc3ccc(C(=O)Nc4nc5ccccc5n4CCCN(C)C)cc3n2C1 (stereo not drawn) [Example 101, N-{1-[3-(dimethylamino)propyl]-1H-benzimidazol-2-yl}-4-methyl-1-oxo-2,3,4,5-tetrahydro-1H-[1,4]diazepino[1,2-a]indole-8-carboxamide]"
5,0.38 nM,"CN(C)CCCn1c(NC(=O)c2ccc3cc4n(c3c2)C(C)(C)CNC4=O)nc2ccccc21 [Example 98, N-{1-[3-(dimethylamino)propyl]-1H-benzimidazol-2-yl}-4,4-dimethyl-1-oxo-1,2,3,4-tetrahydropyrazino[1,2-a]indole-7-carboxamide]"
6,7.3 nM,"CC(C)n1c(NC(=O)c2ccc3cc4n(c3c2)C(C)CNC4=O)nc2ccccc21 (stereo not drawn) [Example 74, 4-methyl-1-oxo-N-[1-(propan-2-yl)-1H-benzimidazol-2-yl]-1,2,3,4-tetrahydropyrazino[1,2-a]indole-7-carboxamide]"
7,0.89 nM,"CC1(C)CNC(=O)c2cc3ccc(C(=O)Nc4nc5ccccc5[nH]4)cc3n21 [Example 56, N-(1H-benzimidazol-2-yl)-4,4-dimethyl-1-oxo-1,2,3,4-tetrahydropyrazino[1,2-a]indole-7-carboxamide]"
8,7.6 nM,"CC1CNC(=O)c2cc3ccc(C(=O)Nc4cnn(Cc5ccccc5)c4)cc3n2C1 (stereo not drawn) [Example 135, N-(1-benzyl-1H-pyrazol-4-yl)-4-methyl-1-oxo-2,3,4,5-tetrahydro-1H-[1,4]diazepino[1,2-a]indole-8-carboxamide]"
9,4.4 nM,"O=C(Nc1nc2ccccc2[nH]1)c1ccc2cc3n(c2c1)CCCNC3=O [Example 55, N-(1H-benzimidazol-2-yl)-1-oxo-2,3,4,5-tetrahydro-1H-[1,4]diazepino[1,2-a]indole-8-carboxamide]"
10,8 nM,"O=C(Nc1nc2cc(Cl)ccc2[nH]1)c1ccc2cc3n(c2c1)CCCNC3=O [Example 47, N-(5-chloro-1H-benzimidazol-2-yl)-1-oxo-2,3,4,5-tetrahydro-1H-[1,4]diazepino[1,2-a]indole-8-carboxamide]"
11,26.5 nM,"O=C(Nc1cnn(Cc2ccccc2)c1)c1ccc2cc3n(c2c1)CC1(CCC1)CNC3=O [Example 138, N-(1-benzyl-1H-pyrazol-4-yl)-1′-oxo-2′,3′-dihydro-1′H-spiro[cyclobutane-1,4′-[1,4]diazepino[1,2-a]indole]-8′-carboxamide]"
12,0.42 nM,"C[C@@H]1NC(=O)c2cc3ccc(C(=O)Nc4cnn(Cc5ccccc5)c4)cc3n2[C@@H]1C [Example 140, (3S,4R)-N-(1-benzyl-1H-pyrazol-4-yl)-3,4-dimethyl-1-oxo-1,2,3,4-tetrahydropyrazino[1,2-a]indole-7-carboxamide]"
13,15 nM,"CC1(C)CNC(=O)c2cc3ccc(C(=O)Nc4cc(-c5ccccc5)no4)cc3n21 [Example 201, 4,4-dimethyl-1-oxo-N-(3-phenyl-1,2-oxazol-5-yl)-1,2,3,4-tetrahydropyrazino[1,2-a]indole-7-carboxamide]"
14,4.9 nM,"N#Cc1ccc2[nH]c(NC(=O)c3ccc4cc5n(c4c3)CCCNC5=O)nc2c1 [Example 41, N-(5-cyano-1H-benzimidazol-2-yl)-1-oxo-2,3,4,5-tetrahydro-1H-[1,4]diazepino[1,2-a]indole-8-carboxamide]"
15,0.59 nM,"CC1CNC(=O)c2cc3ccc(C(=O)Nc4nc5ccccc5[nH]4)cc3n21 (stereo not drawn) [Example 57, N-(1H-benzimidazol-2-yl)-4-methyl-1-oxo-1,2,3,4-tetrahydropyrazino[1,2-a]indole-7-carboxamide]"
16,19 nM,"CC(C)n1ncc2cc(NC(=O)c3ccc4cc5n(c4c3)C(C)CCNC5=O)cnc21 (stereo not drawn) [Example 162, 5-methyl-1-oxo-N-[1-(propan-2-yl)-1H-pyrazolo[3,4-b]pyridin-5-yl]-2,3,4,5-tetrahydro-1H-[1,4]diazepino[1,2-a]indole-8-carboxamide]"
17,21 nM,"CN1CCC(Cn2c(NC(=O)c3ccc4cc5n(c4c3)CCCNC5=O)nc3ccccc32)CC1 [Example 88, N-{1-[(1-methylpiperidin-4-yl)methyl]-1H-benzimidazol-2-yl}-1-oxo-2,3,4,5-tetrahydro-1H-[1,4]diazepino[1,2-a]indole-8-carboxamide]"
18,0.62 nM,"Cn1c(NC(=O)c2ccc3cc4n(c3c2)C(C)(C)CNC4=O)nc2ccccc21 [Example 59, 4,4-dimethyl-N-(1-methyl-1H-benzimidazol-2-yl)-1-oxo-1,2,3,4-tetrahydropyrazino[1,2-a]indole-7-carboxamide]"
